Results on one molecule are retold here after US20150190369A1, “QUERCETIN-3-GLUCOSIDE AND USES THEREOF” (priority 2012, published 2015).

One assay has as its system ABCA1 mRNA. Kind of assay: qRT-PCR for ABCA1 mRNA in MIN6 β-cells. The format is cell-based, mouse. Conditions: MIN6, 24 h. How it is done:
Mouse insulinoma MIN6 cells were cultured in a 5% CO2-95% air atmosphere at 37° C. in DMEM medium containing 10% heat-inactivated fetal bovine serum, 1 mM Na-pyruvate, 2 mM L-glutamine, 25 mM D-glucose, and 28 μM β-mercaptoethanol. Q3G at a specific final concentration was supplemented to the culture medium and incubation was conducted for a selected length of time. Media were collected, spun at 600 g to sediment suspended cells, supplemented with 0.5 volumes of 3×RIPA-PIC (1×: 50 mM Tris-HCl, pH 8, 150 mM NaCl, 1% NP-40, 0.5% Na-deoxycholate and 0.1% SDS and PIC). Cells were lysed in 1×RIPA-PIC for immuno-blotting, or in RNA extraction buffer for qRT-PCR.
For the mouse studies, the levels of specific mRNAs were quantified in a PCR-based fluorogenic assay using the Taqman technology (Holland et al., 1991). Briefly, total RNA was extracted using the RNeasy extraction kit and reverse-transcribed into cDNA using random hexameric primers and the Superscript II RNase H-Reverse Transcriptase. […] Standard curves were established using varying amounts of pre-quantified amplicons of each transcript. […]
MIN6 β-cells were incubated for 24 h in the presence of different concentrations of Q3G. Total RNA was extracted and analyzed by qRT-PCR for the levels of mRNA for PCSK9, LDLR, ABCA1 and ABCG1.
Background: Real-time PCR tracks product formation cycle by cycle.

The next assay has as its system LDLR. Kind of assay: Immunofluorescence flow cytometry of cell surface LDLR on Huh7 cells. The format is cell-based, human. Conditions: Huh7 pretreated 24 h with 5 μM Q3G versus untreated. How it is done:
Cells were seeded at 4×10^4 cell/10-cm dish in 3 ml of completed medium and incubated overnight. LPDS medium containing or not 5 μM Q3G was substituted and incubation resumed for 24 h. Subsequent steps were conducted with ice-cold solutions and at 4° C. Cell monolayers were rinsed with PBS, overlaid with PBS containing rabbit anti-LDLR antibody for 1 h, then with PBS containing Alexa Fluor-488-conjugated goat anti-rabbit Ig antibody for another 1 h. After a PBS rinse, the cells were overlaid with Versene, suspended in DMEM and analyzed in Benson-Dickenson XL flow cytometer at 492 nm and 520 nm excitation and emission wavelengths, respectively. Cell autofluorescence and non-specific fluorescence were assessed using cells not treated with the secondary and the primary antibody, respectively.
To be functionally relevant, Q3G-induced LDLR should accumulate at the cell surface of the hepatocyte cells where it could mediate LDL uptake. To verify the surface localization of the receptor, untreated and pretreated intact Huh7 cells were stained at 4° C. for LDLR by indirect immunofluorescence, and analyzed by fluorescence flow cytometry.

Take `O=c1c(O[C@@H]2O[C@H](CO)[C@@H](O)[C@H](O)[C@H]2O)c(-c2ccc(O)c(O)c2)oc2cc(O)cc(O)c12` [Q3G, quercetin-3-O-β-D-glucoside]: the “effect on ABCA1 mRNA levels” value with ABCA1 mRNA (Q3G 8 mM and above) is given as “reducing”. Moreover, the “increase of ABCA1 mRNA levels” value in the assay with ABCA1 mRNA (Q3G up to 4 mM) was “about 50%”. Also, the “increase of LDLR cell surface density” value with LDLR is reported as 1.7 fold.
